# Patent US20100286145A1, “ISOPHTHALAMIDE DERIVATIVES INHIBITING BETA-SECRETASE ACTIVITY” (CoMentis, Inc., priority 2007, published 2010)
# Experiments:
# [1] = Plasma pharmacokinetic analysis in rats, i.v. bolus; format: in vivo; settings: male, Sprague-Dawley, rat, iv
# Text: (§1) Quantitative analysis was used to determine the concentration of a test inhibitor, N1-((2S,3R)-4-((5-(2-fluoropropan-2-yl)pyridin-3-yl)methylamino)-3-hydroxy-1-phenylbutan-2-yl)-N3-methyl-N3-((4-methylthiazol-2-yl)methyl)isophthalamide, in biological tissues. The test inhibitor was extracted from a variety of biological samples followed by its selective identification and quantification from a standard curve prepared in the same extracted biological matrix. Briefly, this extraction is accomplished through a simple protein precipitation technique performed on collected plasma. The resultant extractions are then quantified using the LC/MS protocol as detailed herein.
# Whole blood from animals dosed with the test inhibitor was collected in lithium heparin anti-coagulant tubes. These samples were centrifuged to allow the subsequent collection of plasma, with plasma aliquots immediately stored at −70° C. For quantitative analysis, the samples were then thawed on ice and a 20 μl aliquot was added to a well of a multi-screen Solvinert filter plate (Millipore). A five-fold volume of acetonitrile was added to each sample to facilitate protein precipitation, the samples were multiply aspirated or shaken to mix and then centrifuged at 4500 rpm for 15 minutes to filter the samples, with the supernatant being collected in an underlying 96 well receiving plate. The receptor plate was then dried via speed vacuum at 40° C. The sample was reconstituted by multiple aspirations with a reconstitution buffer composed of 10% acetonitrile, 10% DMSO, 80% H2O with an internal standard added at a concentration of 100 ng/ml. Standards of the test inhibitor were prepared in 100% DMSO for the generation of a standard curve for sample quantification. The samples range from 1 to 100000 ng/ml, as required for the analysis. A 1 μl aliquot of standard was added per 10 μl of blank plasma to construct a calibration curve, 0.1 ng/ml to 10000 ng/ml, prior to the protein precipitation step again as required for analysis. Quality control samples were prepared identically, from an alternate standard source and a single sample was prepared with an identical volume spike added post precipitation and collection to monitor the extraction efficiency. This method was applicable to plasma from all species currently being tested. Solvinert filter wells were pre-washed with 100 μl of 10% MeOH/90% ACN followed by centrifugation at 4500 RPM for 10 min prior to use.
# (§2) Quantitative analysis was performed through LC/MS analysis. The system was composed of an Eksigent Express LC 100 microflow HPLC system, coupled with an Eksigent CXP C-8AR 0.3*50 mm, or other suitable column, and a Thermo TSQuantum Classic triple quadrupole mass spectrometer running in positive ion, SRM mode. The HPLC buffers were 99.5% H2O, 0.5% formic acid (buffer A) and 99.5% acetonitrile, 0.5% formic acid (buffer B). Typically, a 10 μl aliquot was injected onto the column followed by a 1.5 minute chromatographic analysis. This analysis was conducted at a 20 μl/min flow rate, and composed of a gradient from 15% B to 90% B followed by a 98% B flush to facilitate compound separation and quantitation. Each sample was analyzed in duplicate, with QC, and system blank samples run after every sample set. The column effluent was analyzed in real time by MS/MS to allow the positive identification and quantification of the test inhibitor by compound fingerprint analysis. This was accomplished by allowing only species of 586.3 Da to pass through the first quadrupole, followed by collision induced decay in quadrupole two and scanning analysis of selected daughter ions specific to the test compound in quadrupole three. The collected data was analyzed using the LCQuan software package from Thermo Electron, to determine the levels of the test compound in the samples.
# Male Sprague-Dawley Rats (200-400 g) were obtained from Taconic Farms (Hudson, N.Y.) with a pre-implanted jugular vein cannula (JVC) for blood sampling. […]
# [2] = Brain pharmacokinetic analysis / brain penetration in rats, i.v. bolus; format: in vivo
# Text: as §1, §2
# Male Sprague-Dawley Rats (200-400 g) were obtained from Taconic Farms (Hudson, N.Y.) with a pre-implanted jugular vein cannula (JVC) for blood sampling. A solution (5 mg/mL, free base equivalents) of the test inhibitor, N1-((2S,3R)-4-((5-(2-fluoropropan-2-yl)pyridin-3-yl)methylamino)-3-hydroxy-1-phenylbutan-2-yl)-N3-methyl-N3-((4-methylthiazol-2-yl)methyl)isophthalamide mono-citrate salt, was prepared freshly in 35% hydroxypropyl-β-cyclodextrin (HPBCD). Intravenous bolus injection was conducted using a 25 gauge needle via the tail vein. Animals were supplied with water and a commercial rodent diet ad libitum prior to and during the study.
# Blood samples (˜100 μl at each time point) for plasma pharmacokinetic (PK) analysis were collected from the JVC cannula into lithium-heparin tubes at 2 min, 5 min, 15 min, 30 min, 45 min, 1 hr, 2 hr, 4 hr, 6 hr and 24 hr post-dose (Group A in Table 2). For compartmental PK analysis, blood and brain were collected from animals in Group B (Table 2) at 15 min, 1 hr, 2 hr, 4 hr, and 6 hr post-dose, with three rats assigned to each time point. Animals were deeply anesthetized with isoflurane and blood collected by cardiocentesis. Plasma separated by centrifugation at 6000 rpm×10 min. Brain hemispheres were subsequently harvested and snap frozen in liquid nitrogen. Plasma and brain samples were subsequently stored at −70° C.
# Bioanalysis of the test inhibitor from plasma and brain extracts was performed according to standard procedures. Briefly, 20 μl of plasma was extracted with 100 μl of acetonitrile using a 96-well Solvinert filter plate (Millipore). Samples were subjected to LC/MS/MS analysis using an Eksigent Express LC 100 microflow HPLC system, coupled with an Eksigent CXP C-18AR 0.3*50 mm column, and a Thermo TSQuantum Classic triple quadrupole mass spectrometer running in positive ion, SRM mode. […]
# [3] = male, Sprague-Dawley, rat, in vivo, iv, 10 mg/kg
compound,measurement,setting,value
"Cc1csc(CN(C)C(=O)c2cccc(C(=O)N[C@@H](Cc3ccccc3)[C@H](O)CNCc3cncc(C(C)(C)F)c3)c2)n1 [test inhibitor, N1-((2S,3R)-4-((5-(2-fluoropropan-2-yl)pyridin-3-yl)methylamino)-3-hydroxy-1-phenylbutan-2-yl)-N3-methyl-N3-((4-methylthiazol-2-yl)methyl)isophthalamide]",concentration at 0.25 h,"[1]; in vivo, 10 mg/kg",2500 ng/mL
same,concentration at 1 h,"[1]; in vivo, 10 mg/kg",548 ng/mL
same,concentration at 2 h,"[1]; in vivo, 10 mg/kg",130 ng/mL
same,concentration at 4 h,"[1]; in vivo, 10 mg/kg",31.1 ng/mL
same,concentration at 6 h,"[1]; in vivo, 10 mg/kg",5.7 ng/mL
same,concentration at 24 h,"[1]; in vivo, 10 mg/kg",2.2 ng/mL
same,half-life,"[1]; plasma, 10 mg/kg, rats, i.v. bolus 10 mg/kg, read-out: Plasma Terminal phase t1/2 (converted)",13.1 h
same,half-life,"[1]; plasma, 10 mg/kg, rats, single 10 mg/kg intravenous dose, read-out: half-life in plasma",6 to 13 h
same,AUC(0-t),"[1]; plasma, rats, single dose i.v. 10 mg/kg, read-out: AUC24 hr, Plasma",2580 ng·h/mL
same,Brain Terminal phase t1/2,[2]; [3],34.3 h
same,MRT last,[2]; [3],12 h
same,"Penetration (%), brain relative to plasma AUC24 hr",[2]; [3],46.8%
same,concentration at 0.25 h,[2]; [3],160 ng/mL
same,concentration at 1 h,[2]; [3],71.1 ng/mL
same,concentration at 2 h,[2]; [3],72.4 ng/mL
same,concentration at 4 h,[2]; [3],28 ng/mL
same,concentration at 6 h,[2]; [3],42.7 ng/mL
same,concentration at 24 h,[2]; [3],52.5 ng/mL
same,half-life,"[2]; male, Sprague-Dawley, rat, in vivo, iv, 10 mg/kg, Brain Terminal phase t1/2",34 h
same,AUC(0-t),"[2]; male, Sprague-Dawley, rat, in vivo, iv, rats, single dose i.v. 10 mg/kg, read-out: AUC24 hr, Brain",1210 ng·h/mL
same,Brain AUC24 hr,"[2]; rats, i.v. bolus 10 mg/kg",1206.2 ng·h/mL
